Test results: patent EP2684879A1, “Substituted mesoionic compounds for combating animal pests” (priority 2012, dated 2014)

What was measured:
Assay type in all cases: in vivo
[1] = test system: Southern Armyworm (Spodoptera eridania, 2nd instar larvae); assay: Southern armyworm, sprayed lima bean plants; conditions: 96 h, test concentration of 500 ppm, 4 days after treatment, in comparison with untreated controls
Experimental: The active compounds were formulated in cyclohexanone as a 10, 0000 ppm solution supplied in 1.3 ml ABgene® tubes. These tubes were inserted into an automated electrostatic sprayer equipped with an atomizing nozzle and they served as stock solutions for which lower dilutions were made in 50% acetone: 50% water (v/v). A nonionic surfactant (Kinetic®) was included in the solution at a volume of 0.01% (v/v). Lima bean plants (variety Sieva) were grown 2 plants to a pot and selected for treatment at the 1st true leaf stage. Test solutions were sprayed onto the foliage by an automated electrostatic plant sprayer equipped with an atomizing spray nozzle. The plants were dried in the sprayer fume hood and then removed from the sprayer. Each pot was placed into perforated plastic bags with a zip closure. Ten to 11 armyworm larvae were placed into the bag and the bags zipped closed. Test plants were maintained in a growth room at 25°C and 20-40% relative humidity for 4 days, avoiding direct exposure to fluorescent light (24 hour photoperiod) to prevent trapping of heat inside the bags. Mortality and reduced feeding were assessed 4 days after treatment, compared to untreated control plants.

[2] = test system: Orchid thrips (Dichromothrips corbetti); assay: Orchid thrips, floral-immersion technique; conditions: 96 h, test concentration of 100 ppm, after 4 days, in comparison with untreated controls
Experimental: Dichromothrips corbetti adults used for bioassay were obtained from a colony maintained continuously under laboratory conditions. For testing purposes, the test compound was diluted to a concentration of 300 ppm (wt compound: vol diluent) in a 1:1 mixture of acetone:water (vol:vol), plus 0.01 % vol/vol Kinetic® surfactant. Thrips potency of each compound was evaluated by using a floral-immersion technique. Plastic petri dishes were used as test arenas. All petals of individual, intact orchid flowers were dipped into treatment solution and allowed to dry. Treated flowers were placed into individual petri dishes along with 10 - 15 adult thrips. The petri dishes were then covered with lids. All test arenas were held under continuous light and a temperature of about 28°C for duration of the assay. After 4 days, the numbers of live thrips were counted on each flower, and along inner walls of each petri dish. The level of thrips mortality was extrapolated from pre-treatment thrips numbers.

[3] = test system: boll weevil (Anthonomus grandis); assay: Boll weevil control, insect diet in 24-well microtiter plates; conditions: 120 h, test concentration of 1415 ppm, egg and larval mortality visually assessed after 5 days
Experimental: (§1) For evaluating control of boll weevil (Anthonomus grandis) the test unit consists of 24-well-microtiter plates containing an insect diet and 20-30 A. grandis eggs. The compounds were formulated using a solution containing 75% v/v water and 25% v/v DMSO. Different concentrations of formulated compounds were sprayed onto the insect diet at 20 µl, using a custom built micro atomizer, at two replications. After application, microtiter plates were incubated at about 23 ± 1°C and about 50 ± 5 % relative humidity for 5 days. Egg and larval mortality was then visually assessed.

[4] = test system: tobacco budworm (Heliothis virescens); assay: Tobacco budworm control, insect diet in 96-well microtiter plates; conditions: 120 h
Experimental: as §1, with “tobacco budworm (Heliothis virescens)” for “boll weevil (Anthonomus grandis)”, “96-well-microtiter” for “24-well-microtiter”, “15-25 H. virescens” for “20-30 A. grandis”, “10” for “20”, “28” for “23”, “80” for “50”

[5] = test system: Green Peach Aphid (Myzus persicae, mixed life stages); assay: Green peach aphid, sprayed infested bell pepper plants; conditions: 120 h, test concentration of 1415 ppm, after 5 days, relative to mortality on untreated control plants
From the text: The active compounds were formulated in cyclohexanone as a 10,000 ppm solution supplied in tubes. The tubes were inserted into an automated electrostatic sprayer equipped with an atomizing nozzle and they served as stock solutions for which lower dilutions were made in 50% acetone:50% water (v/v). A nonionic surfactant (Kinetic®) was included in the solution at a volume of 0.01 % (v/v). Bell pepper plants at the first true-leaf stage were infested prior to treatment by placing heavily infested leaves from the main colony on top of the treatment plants. Aphids were allowed to transfer overnight to accomplish an infestation of 30-50 aphids per plant and the host leaves were removed. The infested plants were then sprayed by an automated electrostatic plant sprayer equipped with an atomizing spray nozzle. The plants were dried in the sprayer fume hood, removed, and then maintained in a growth room under fluorescent lighting in a 24-hr photoperiod at about 25°C and about 20-40% relative humidity. Aphid mortality on the treated plants, relative to mortality on untreated control plants, was determined after 5 days.

[6] = test system: Mediterranean fruitfly (Ceratitis capitata); assay: Mediterranean fruitfly control, insect diet in microtiter plates; conditions: 120 h, test concentration of 1415 ppm, egg and larval mortality visually assessed after 5 days
Experimental: For evaluating control of Mediterranean fruitfly (Ceratitis capitata) the test unit consisted of microtiter plates containing an insect diet and 50-80 C. capitata eggs. The compounds were formulated using a solution containing 75% v/v water and 25% v/v DMSO. Different concentrations of formulated compounds were sprayed onto the insect diet at 5 µl, using a custom built micro atomizer, at two replications. After application, microtiter plates were incubated at about 28 ± 1°C and about 80 ± 5 % relative humidity for 5 days. Egg and larval mortality was then visually assessed.

[7] = test system: vetch aphid (Megoura viciae); assay: Vetch aphid control, broad bean leaf disks, contact or systemic; conditions: foliar, 120 h, test concentration of 1415 ppm, aphid mortality visually assessed after 5 days
[8] = test system: Rice brown plant hopper (Nilaparvata lugens); assay: Rice brown plant hopper, sprayed potted rice seedlings; conditions: test concentration of 500 ppm, after 72 hours, in comparison with untreated controls
Experimental: Rice seedlings were cleaned and washed 24 hours before spraying. The active compounds were formulated in 50:50 acetone:water (vol:vol) and 0.1 % vol/vol surfactant (EL 620) was added. Potted rice seedlings were sprayed with 5 ml test solution, air dried, placed in cages and inoculated with 10 adults. Treated rice plants were kept at about 28-29°C and relative humidity of about 50-60%. Percent mortality was recorded after 72 hours.

CCS(CC)=NC(=O)c1ccc(-c2cccc(-c3c([O-])[n+](Cc4cnc(Cl)s4)c4c(C)cccn4c3=O)c2)cc1 [Compound C-1]
mortality at 500 ppm [1]: ≥ 75% | mortality at 100 ppm [2]: ≥ 75% | mortality at 1415 ppm [3]: ≥ 75% | mortality at 1415 ppm [4]: ≥ 75% | mortality at 1415 ppm [5]: ≥ 75% | mortality at 1415 ppm [6]: ≥ 75%

CCS(CC)=NC(=O)c1cccc(-c2c([O-])[n+](Cc3ccc(Cl)nc3)c3ccccn3c2=O)c1 [Compound C-4, 1-[(6-chloro-3-pyridyl)methyl]-3-[3-[(diethyl-λ4-sulfanylidene)carbamoyl]phenyl]-4-oxo-pyrido[1,2-a]pyrimidin-1-ium-2-olate]
mortality at 500 ppm [1]: ≥ 75%

CC(C)S(=NC(=O)c1cccc(-c2c([O-])[n+](Cc3ccc(Cl)nc3)c3ccccn3c2=O)c1)C(C)C [Compound C-5]
mortality at 500 ppm [1]: ≥ 75% | mortality at 1415 ppm [5]: ≥ 75%

CCS(=NC(=O)c1ccc(-c2cccc(-c3c([O-])[n+](Cc4ccc(Cl)nc4)c4ccccn4c3=O)c2)cc1)C1CC1 (centres unmarked) [Compound C-7]
mortality at 500 ppm [1]: ≥ 75% | mortality at 1415 ppm [7]: ≥ 75% | mortality at 1415 ppm [5]: ≥ 75%

CC(C)S(=NC(=O)c1ccc(-c2cccc(-c3c([O-])[n+](Cc4ccc(Cl)nc4)c4ccccn4c3=O)c2)cc1)C(C)C [Compound C-8]
mortality at 500 ppm [1]: ≥ 75% | mortality at 1415 ppm [5]: ≥ 75%

CCS(CC)=NC(=O)c1cccc(-c2cc(-c3c([O-])[n+](Cc4ccc(Cl)nc4)c4ccccn4c3=O)ccc2OC)c1 [Compound C-9]
mortality at 1415 ppm [5]: ≥ 75%

CCS(CC)=NC(=O)c1cccc(-c2cc(-c3c([O-])[n+](Cc4cnc(Cl)s4)c4c(C)cccn4c3=O)ccc2Cl)c1 [Compound C-10]
mortality at 1415 ppm [5]: ≥ 75%

CCS(CC)=NC(=O)c1cccc(-c2cccc(-c3c([O-])[n+](Cc4ccc(Cl)nc4)c4ccccn4c3=O)c2)c1 [Compound C-11]
mortality at 1415 ppm [5]: ≥ 75%

CCS(=NC(=O)c1cccc(-c2cccc(-c3c([O-])[n+](Cc4ccc(Cl)nc4)c4ccccn4c3=O)c2)c1)C1CC1 (centres unmarked) [Compound C-12]
mortality at 1415 ppm [5]: ≥ 75%

CC(C)S(=NC(=O)c1cccc(-c2cccc(-c3c([O-])[n+](Cc4ccc(Cl)nc4)c4ccccn4c3=O)c2)c1)C(C)C [Compound C-13]
mortality at 1415 ppm [5]: ≥ 75% | mortality at 500 ppm [8]: ≥ 75%
